Where “and” joins values, the source holds several entries; their conditions need not be identical. Equal entries are not always repeated.
How the values were obtained:
[1] = test system: Klebsiella pneumoniae strain 50752501 harbouring NDM-1; experiment: In vivo peritonitis infection study in neutropenic mice; parameters: Score at sampling: scale not given here; conditions: for Blood log CFU/ml mean / Blood log CFU/ml / Score at sampling / Pf log CFU/ml mean / Pf log CFU/ml: sampling T = 5; for Blood log CFU/ml / Score at sampling / Pf log CFU/ml: individual mice; for Pf log CFU/ml mean / Pf log CFU/ml: peritoneal fluid
Procedure: The purpose of this study was to investigate the synergy between a typical example of the present invention and a state of art carbapenem in a clinically relevant multiresistant Gram-negative bacterial strain harboring a metallo-β-lactamase in the treatment of live mice infected with the bacterial strain.
The mice were rendered neutropenic by injecting 0.5 ml cyclophosphamide solution intraperitoneally 4 days (approximately 200 mg/kg) and 1 day (approximately 100 mg/kg) prior to inoculation.
Fresh overnight colonies from a 5% Horse Blood Agar plate were suspended and diluted in sterile saline to approximately and 10^7 CFU/ml. Mice were inoculated intraperitoneally with 0.5 ml of the suspension. Approximately ½ hr prior to inoculation, mice were treated orally with 45 μl neurophen (20 mg ibuprofen/ml corresponding to approximately 30 mg/kg) as a pain relief.
Mice were treated subcutaneously in the neck region with.
Colony counts were determined from blood and peritoneal fluid at 1 and 5 hrs post inoculation. […] The mice were sacrificed immediately after blood sampling and a total of 2 ml sterile saline was injected i.p. and the abdomen gently massaged before it was opened and fluid sampled with a pipette. Each sample was then 10 fold serial diluted in saline and 20-μl spots, ranging from undiluted to a 10^6 dilution, were applied on agar plates in duplicates. […] All agar plates were incubated 18-22 hrs at 35° C. in ambient air.

[2] = test system: K. pneumonia 50627996 (NDM-1); experiment: Checkerboard MIC, Example 26 and meropenem; assay type: cell-based
Procedure: (§1) A checkerboard MIC assay was using the broth dilution method according to CLSI guidelines. […] Dilutions to 4 mg/ml was performed by adding+4.75 ml sterile saline to 0.25 ml of the stock solution, and dilutions to 512 μg/ml was performed by adding 10.9 ml MH-broth to the 4 mg/ml solution. Inoculums of bacterial strains as described in Table 4 were prepared by suspending fresh overnight colonies from 5% horse blood agar were to a turbidity of 0.5 McFarland and further diluted to 1×10^6 CFU/ml in MH-broth. Aliquots of 50 μl of MH-broth were added to each well of polystyrene microtiter plates. […] The plates were incubated at 35° C., 16-20 hours.

[3] = test system: E. coli AMA817 (NDM-1); experiment: Checkerboard MIC, Example 26 and meropenem; assay type: cell-based
Procedure: as §1

[4] = test system: K. pneumonia 50825040 (NDM-1); experiment: Checkerboard MIC, Example 26 and meropenem; assay type: cell-based
Procedure: as §1

[5] = test system: K. pneumonia K46-62 (VIM-1); experiment: Checkerboard MIC, Example 26 and meropenem; assay type: cell-based
Procedure: as §1

[6] = test system: K. pneumonia 50690310 (NDM-1); experiment: Checkerboard MIC, Example 26 and meropenem; assay type: cell-based
Procedure: as §1

[7] = test system: E. coli 50739822 (NDM-1); experiment: Checkerboard MIC, Example 26 and meropenem; assay type: cell-based
Procedure: as §1

[8] = test system: K. pneumonia 50923744 (VIM); experiment: Checkerboard MIC, Example 26 and meropenem; assay type: cell-based
Procedure: as §1

[9] = test system: K. pneumonia 50752501 (NDM-1); experiment: Checkerboard MIC, Example 26 and meropenem; assay type: cell-based
Procedure: as §1

[10] = test system: E. coli 50921466 (VIM-1); experiment: Checkerboard MIC, Example 26 and meropenem; assay type: cell-based
Procedure: as §1

[11] = test system: E. coli AMA1563 (NDM-5); experiment: Checkerboard MIC, Example 26 and meropenem; assay type: cell-based
Procedure: as §1

[12] = test system: K. pneumonia 50877064 (NDM-1); experiment: Checkerboard MIC, Example 26 and meropenem; assay type: cell-based
Procedure: as §1

[13] = test system: K. pneumonia K45-67 (VIM-1); experiment: Checkerboard MIC, Example 26 and meropenem; assay type: cell-based
Procedure: as §1

[14] = test system: E. coli AMA323 (VIM-4); experiment: Checkerboard MIC, Example 26 and meropenem; assay type: cell-based
Procedure: as §1

[15] = test system: K. pneumonia K66-45 (NDM-1); experiment: Checkerboard MIC, Example 26 and meropenem; assay type: cell-based
Procedure: as §1

[16] = test system: Klebsiella pneumoniae harboring NDM-1; experiment: Time-kill study with meropenem; assay type: cell-based; conditions: Example 26 + 4 mg/L meropenem
Procedure: Mueller-Hinton broth (MHB) was warmed from fridge temperature cold. […] A sample of Example 26 was dissolved in DMSO.
The 96-well plates were prepared using a multi-channel pipette, adding […] PBS to columns 2-9, or the required number of dilutions needed in the experiment. Each Inoculum was prepared by picking a single colony from the fresh plate that was disperged into 1 mL MHB, the loop was agitated to ensure all the colony comes off the loop. The tube was Vortex mixed, and a 100 μL aliquot was taken from the tube into 9.9 mL of MHB into the media bottle. […] The procedure was repeated for as many samples needed in the study. Aliquots of 5 mL inoculum were transferred to as many media bottles as needed, e.g. 4 mg/L MEM, 4 mg/L MEM+50 μM test substance, 4 mg/L MEM+100 μM test substance. Then […] aliquots were taken from each culture and added to Column 1 on the 96 well plate, e.g. culture 1: 50 μl into A1, […] into B1 etc. for time point 0 h. Then […] MEM was added into each bottle, followed by the required amount of test substance. The bottles were mixed gently to avoid formation of bubbles, and incubated in a secondary container at 37° C. at 180 rpm. Finally, serial dilutions were performed using multi-channel pipette taking 30 μL for column 1, adding to column 2, mixing well, repeating from column 2 to 3 with clean pipette tips.

[17] = Example 26 10 mg/kg s.c. + meropenem 33 mg/kg
[18] = Example 26 10 mg/kg s.c. + vehicle
[19] = Example 26 10 mg/kg s.c. + vehicle, 10 mg/kg
[20] = Example 26 33 mg/kg s.c. + meropenem 33 mg/kg
[21] = Example 26 33 mg/kg s.c. + vehicle
[22] = Example 26 33 mg/kg s.c. + vehicle, 33 mg/kg
[23] = Example 26 100 mg/kg s.c. + meropenem 33 mg/kg
[24] = Example 26 100 mg/kg s.c. + vehicle
[25] = Example 26 100 mg/kg s.c. + vehicle, 100 mg/kg
[26] = combination treatment with Example 26 and meropenem
[27] = Klebsiella pneumoniae, read-out: MIC alone, Example 26
[28] = Escherichia coli, read-out: MIC alone, Example 26

CN(C[C@H](O)[C@@H](O)[C@H](O)[C@H](O)CO)C(=O)c1ccc(CN(Cc2ccccn2)Cc2ccccn2)nc1 [Example 26, 6-((bis(pyridin-2-ylmethyl)amino)methyl)-N-methyl-N-((2S,3R,4R,5R)-2,3,4,5,6-pentahydroxyhexyl)nicotinamide]
reduction of the CFU levels compared to vehicle treatment in blood and peritoneal fluid ([1]; 10-100 mg/kg Example 26 alone): did not result in reduction of the CFU levels | Blood log CFU/ml mean [1, 17]: 1.61 log CFU/ml | Blood log CFU/ml [1, 17]: 1.90 log CFU/ml and 1.00 log CFU/ml and 1.85 log CFU/ml and 1.70 log CFU/ml | Score at sampling [1, 17]: 2 | Blood log CFU/ml mean [1, 18]: 5.88 log CFU/ml | Score at sampling [1, 18]: 2 | Blood log CFU/ml [1, 19]: 6.02 log CFU/ml and 5.70 log CFU/ml and 5.90 log CFU/ml and 5.89 log CFU/ml | Blood log CFU/ml mean [1, 20]: 1.26 log CFU/ml | Blood log CFU/ml [1, 20]: 1.78 log CFU/ml (2×) and 1.00 log CFU/ml and 0.50 log CFU/ml | Score at sampling [1, 20]: 1 | Blood log CFU/ml mean [1, 21]: 5.89 log CFU/ml | Score at sampling [1, 21]: 1 | Blood log CFU/ml [1, 22]: 5.83 log CFU/ml and 5.54 log CFU/ml and 6.78 log CFU/ml and 5.40 log CFU/ml | Blood log CFU/ml mean [1, 23]: 1.18 log CFU/ml | Blood log CFU/ml [1, 23]: 1.30 log CFU/ml and 0.50 log CFU/ml and 1.90 log CFU/ml and 1.00 log CFU/ml | Score at sampling [1, 23]: 1 | Blood log CFU/ml mean [1, 24]: 5.84 log CFU/ml | Score at sampling [1, 24]: 1 | Blood log CFU/ml [1, 25]: 5.83 log CFU/ml and 6.05 log CFU/ml and 5.48 log CFU/ml and 6.02 log CFU/ml | lower CFU levels compared to vehicle treatment, blood [1, 26]: 3.95-4.38 log10 | lower CFU levels compared to vehicle treatment, peritoneal fluid [1, 26]: 3.57-3.66 log10 | Pf log CFU/ml mean [1, 17]: 3.83 log CFU/ml | Pf log CFU/ml [1, 17]: 4.18 log CFU/ml and 3.83 log CFU/ml and 3.60 log CFU/ml and 3.72 log CFU/ml | Pf log CFU/ml mean [1, 18]: 7.79 log CFU/ml | Pf log CFU/ml [1, 19]: 7.92 log CFU/ml and 7.68 log CFU/ml and 7.76 log CFU/ml and 7.81 log CFU/ml | Pf log CFU/ml mean [1, 20]: 3.80 log CFU/ml | Pf log CFU/ml [1, 20]: 3.88 log CFU/ml and 3.80 log CFU/ml and 3.68 log CFU/ml and 3.85 log CFU/ml | Pf log CFU/ml mean [1, 21]: 7.60 log CFU/ml | Pf log CFU/ml [1, 22]: 7.68 log CFU/ml and 7.51 log CFU/ml and 7.88 log CFU/ml and 7.35 log CFU/ml | Pf log CFU/ml mean [1, 23]: 3.74 log CFU/ml | Pf log CFU/ml [1, 23]: 3.65 log CFU/ml (2×) and 3.74 log CFU/ml and 3.92 log CFU/ml | Pf log CFU/ml mean [1, 24]: 7.93 log CFU/ml | Pf log CFU/ml [1, 25]: 8.24 log CFU/ml and 7.89 log CFU/ml and 7.63 log CFU/ml and 7.98 log CFU/ml | MIC [2, 27]: > 400 µg/mL | MIC in combination, Example 26 ([2]; with meropenem): 12.5 µg/mL | MIC [3, 28]: > 400 µg/mL | MIC in combination, Example 26 ([3]; with meropenem): 12.5 µg/mL | MIC [4, 27]: > 400 µg/mL | MIC in combination, Example 26 ([4]; with meropenem): 12.5 µg/mL | MIC [5, 27]: > 400 µg/mL | MIC in combination, Example 26 ([5]; with meropenem): 12.5 µg/mL | MIC [6, 27]: > 400 µg/mL | MIC in combination, Example 26 ([6]; with meropenem): 12.5 µg/mL | MIC [7, 28]: > 400 µg/mL | MIC in combination, Example 26 ([7]; with meropenem): 12.5 µg/mL | MIC [8, 27]: > 400 µg/mL | MIC in combination, Example 26 ([8]; with meropenem): 12.5 µg/mL | MIC [9, 27]: > 400 µg/mL | MIC in combination, Example 26 ([9]; with meropenem): 25 µg/mL | MIC [10, 28]: > 400 µg/mL | MIC in combination, Example 26 ([10]; with meropenem): 12.5 µg/mL | MIC [11, 28]: > 400 µg/mL | MIC in combination, Example 26 ([11]; with meropenem): 25 µg/mL | MIC [12, 27]: > 400 µg/mL | MIC in combination, Example 26 ([12]; with meropenem): 12.5 µg/mL | MIC [13, 27]: > 400 µg/mL | MIC in combination, Example 26 ([13]; with meropenem): 12.5 µg/mL | MIC [14, 28]: > 400 µg/mL | MIC in combination, Example 26 ([14]; with meropenem): 12.5 µg/mL | MIC [15, 27]: > 400 µg/mL | MIC in combination, Example 26 ([15]; with meropenem): 12.5 µg/mL | time after which CFU drops to below the limit of detection (LOD) ([16]; irrespective of the concentration of Example 26): 5 to 10 h | period CFU stays below LOD ([16]; period of the study): ≥ 30 h

— patent US11649222B2, “Compounds” (UNIVERSITETET I OSLO, priority 2016, dated 2023)
